“Also recorded” adds a separate entry of the source. Where two headings read alike, the source gives them in different places.
Key:
recombinant Tdp1 = recombinant Tdp1 (Homo sapiens, UniProt Q9NUW8); test: Gel-based Tdp1 catalytic activity inhibition assay (5'-32P-labeled N14Y DNA substrate, denaturing PAGE); format: biochemical; conditions: for IC50: 0.2 nmol/L recombinant Tdp1, 1 nmol/L N14Y substrate, 15 min, room temperature
Procedure: 5′-^32P-labeled DNA substrate (1 nmol/L; N14Y; 5′-[…]-pY-3′) was incubated with 0.2 nmol/L recombinant Tdp1 in the absence or presence of inhibitor for 15 min at room temperature in an assay buffer containing 1×PBS, pH 7.4, 80 mmol/L KCl and 0.01% Tween-20. Reactions were terminated by the addition of 1 volume of gel loading buffer [99.5% (v/v) formamide, 5 mmol/L EDTA, 0.01% (w/v) xylene cyanol, and 0.01% (w/v) bromophenol blue]. Samples were subjected to a 16% denaturing PAGE and gels were exposed after drying to a PhosphorImager screen (GE Healthcare). Gel images were scanned using a Typhoon 8600 (GE Healthcare) and densitometric analyses were performed using the ImageQuant software package (GE Healthcare).

[1] = test system: human osteosarcoma U2OS cells; test: Cytotoxicity/proliferation (MTS) assay for synergy with camptothecin; format: cell-based; conditions: 72 hours, NF-SDM at 3, 6 and 12 μM
Procedure: U2OS cells (Developmental Therapeutics Program, NCI) were plated at 3×10^3 cells in a total volume of 100 μl per well in a 96 well plate and incubated at 37° C./5% CO2 for 24 hours prior to drug treatment. CPT and another drug of interest (both in DMSO stock solution) were prepared at double the desired concentration, and serially diluted in cells' media. After medium was aspirated off cells, 50 μl of CPT was plated down each column at four-fold dilutions in subsequent columns and 50 μl of another drug of interest was plated across rows, at two-fold dilutions in subsequent rows. A single drug dose response was also included for each drug tested, to which 50 μl of regular media was added to reconstitute a final volume of 100 μl in each well. Plates were further incubated for 72 hours and proliferation was assayed by adding 20 μl of 3-(4,5-dimethylthiazol-2-yl)-5-(3 carboxymethoxyphenyl)-2-(4-sulfophenyl)-2H-tetrazolium (MTS) Cell Titer Reagent (Promega) to each well. Plates were lightly mixed and placed back into the incubator until the appropriate color change occurred (˜1 hr), at which point plates were read on a Molecular Device Gemini fluorescence plate reader at an absorbance of 490 nm for cell viability. Raw data were plotted using GraphPad Prism and compared to each sample's control (GraphPad Software Inc.).

[2] = read-out: unable to inhibit Tdp1 / inactive at concentrations up to

recombinant Tdp1, sequence (Q9NUW8 whole entry): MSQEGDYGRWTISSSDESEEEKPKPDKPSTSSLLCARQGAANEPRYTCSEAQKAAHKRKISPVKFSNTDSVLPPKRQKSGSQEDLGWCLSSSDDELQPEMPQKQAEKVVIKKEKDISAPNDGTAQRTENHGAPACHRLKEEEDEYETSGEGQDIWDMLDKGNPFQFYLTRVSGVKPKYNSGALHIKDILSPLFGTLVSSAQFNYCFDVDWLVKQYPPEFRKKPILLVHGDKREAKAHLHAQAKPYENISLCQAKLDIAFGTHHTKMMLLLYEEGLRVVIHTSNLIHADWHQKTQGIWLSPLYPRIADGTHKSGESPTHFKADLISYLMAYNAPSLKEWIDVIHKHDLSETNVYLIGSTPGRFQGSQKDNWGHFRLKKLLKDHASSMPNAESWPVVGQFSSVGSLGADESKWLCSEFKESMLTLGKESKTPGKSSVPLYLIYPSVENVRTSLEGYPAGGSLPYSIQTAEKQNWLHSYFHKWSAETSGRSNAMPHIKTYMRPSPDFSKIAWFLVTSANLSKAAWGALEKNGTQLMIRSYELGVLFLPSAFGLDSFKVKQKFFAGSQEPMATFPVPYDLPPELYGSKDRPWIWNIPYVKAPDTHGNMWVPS

Row | SMILES | Tdp1 inhibitory activity (in words) (recombinant Tdp1) | IC50 (recombinant Tdp1; read-out: inhibit Tdp1 catalytic activity (IC50 Tdp1 inhibition)) [µM] | synergy with the TopI poison camptothecin (CPT) on cell growth/viability [1] | IC50 (recombinant Tdp1; [2]) [µM]
1 | CCn1cc(C(=O)O)c(=O)c2cc(F)c(N3CCN(CNc4ccc(S(=O)(=O)Nc5nc(C)cc(C)n5)cc4)CC3)cc21 [NF-SDM] | nanomolar range | 0.005 | synergize with CPT; also recorded: synergistic effect; also recorded: acts synergistically | 
2 | COc1c(N2CCNC(C)C2)c(F)cc2c(=O)c(C(=O)O)cn(C3CC3)c12 (stereo not shown) [gatifloxacin] |  |  |  | > 333
3 | CCn1cc(C(=O)O)c(=O)c2cc(F)c(N3CCNCC3)cc21 [norfloxacin] |  |  |  | > 333
4 | Cc1cc(C)nc(NS(=O)(=O)c2ccc(N)cc2)n1 [sulfadimidine] | does not inhibit Tdp1 |  |  | > 333

Reference: US8716295B2, “Fluoroquinolone derivatives or sulfonamide moiety-containing compounds as inhibitors of tyrosyl-dnaphosphodiesterase (TDP1)” (priority 2010, dated 2014)
